Test results from ChEMBL document CHEMBL3108671, “Differential Induction of Cytoplasmic Vacuolization and Methuosis by Novel 2-Indolyl-Substituted Pyridinylpropenones” (2014).
Calls of active or inactive are those of the source. The calls are words filed in the database; no cut-off is given here.

Key:
U-251 [1] = assay: Induction of methuosis in human U251 cells assessed as decrease in cell proliferation at 10 uM after 2 days by phase-contrast microscopic analysis; type: functional, cell-based
U-251 [2] = assay: Induction of methuosis in human U251 cells assessed as heavily vacuolated cells at 10 uM after 1 day by phase-contrast microscopic analysis; type: functional, cell-based
U-251 [3] = assay: Growth inhibition of human U251 cells preincubated for 24 hrs followed by compound-washout measured at 48 hrs by sulforhodamine assay; type: functional
U-251 [4] = assay: Induction of methuosis in human U251 cells assessed as loss of membrane integrity at 10 uM after 2 days by phase-contrast microscopic analysis; type: functional, cell-based
U-251 [5] = assay: Induction of methuosis in human U251 cells assessed as detachment of vacuolated cells at 10 uM after 2 days by phase-contrast microscopic analysis; type: functional, cell-based
U-251 [6] = assay: Induction of methuosis in human U251 cells assessed as sparse cells at 10 uM after 1 day by phase-contrast microscopic analysis; type: functional, cell-based

Compound	GI50 (U-251 [3])	Activity (U-251 [1])	Activity (U-251 [2])	Activity (U-251 [4])	Activity (U-251 [5])	Activity (U-251 [6])
COc1ccc2[nH]c(C)c(/C=C/C(=O)c3cccnc3)c2c1	16.9 µM	inactive	inactive			
CCCc1[nH]c2ccc(OC)cc2c1/C=C/C(=O)c1ccncc1	15.3 µM	inactive	Active		inactive	
COc1ccc2[nH]c(C(C)C)c(/C=C/C(=O)c3ccncc3)c2c1	> 20 µM	inactive	Active		inactive	
COc1ccc2[nH]cc(/C=C/C(=O)c3ccncc3)c2c1	18.6 µM	inactive	Active		inactive	

Second part, led by results:

GI50 (U-251 [3])	Compound	Activity (U-251 [1])	Activity (U-251 [2])	Activity (U-251 [4])	Activity (U-251 [5])	Activity (U-251 [6])
3.2 µM	CCc1[nH]c2ccc(OC)cc2c1/C=C/C(=O)c1ccncc1		Active	Active	Active	Active
16.6 µM	COc1ccc2[nH]c(CC(C)C)c(/C=C/C(=O)c3ccncc3)c2c1	inactive	Active		inactive	
